Assay [1] concerns bone marrow mesenchymal stem cells. Put plainly: Adipogenesis in culture, assay 1 or 2 not specified. It is filed as cell-based. Conditions: for adipogenic activity (in words): truncation fragments, FIGS. 7-9, 13; for activity compared to KSEVSK hexamer: FIG. 13, doses 1, 5, 25 μg, absorbance at 520 nm. The text has this: The following assays were used to assess adipogenic activity of the peptides in the experiments described below in Example 2.
(§1) Pre-adipocyte stem cells including bone marrow mesenchymal stem cells and fibroblasts including reticular and papillary dermal fibroblasts were propagated using standard tissue culture methods. Cells were trypsinized to remove the cells from the substratum. The trypsin was neutralized and cells were counted using a hemocytometer. Cells were resuspended at 30,000 cells/mL in expansion media. […] of cell suspension was plated per well of 24-well plate, with several wells left empty for blank well staining.
(§2) Pre-adipocyte stem cells, bone marrow mesenchymal stem cells and fibroblasts such as dermal reticular and papillary fibroblasts were propagated using standard tissue culture methods. Cells were trypsinized to remove cells from the substratum, the trypsin was neutralized, and cells were counted using a hemocytometer. Cells were resuspended at 60,000 cells/ml in low glucose DMEM containing 10% calf serum. 1 mL of cell suspension per well was plated in a 24-well plate, with several wells left empty for blank well staining.

Assay [2] deals with Pre-adipocyte stem cells including bone marrow mesenchymal stem cells and fibroblasts. Description: Assay 1 to measure adipogenesis (IBMX/dexamethasone initiation, Oil Red O or BODIPY staining). Format: cell-based, rat. Conditions: for Fold adipogenic induction vs. negative control / Specific activity (activity/1000 daltons): Assay 1; for adipogenic effect compared to KSEVSK 6-mer: assay 1 (FIG. 11). The procedure:
Reagents: (1) 3-isobutyl-1-methylxanthine (IBMX) solution: 0.5M in DMSO; (2) Insulin solution: 10 mg/mL recombinant human insulin; (3) Dexamethasone solution in 10 mM in ethanol; (4) Oil Red 0 (0.36% in 60% isopropanol) or BODIPY dye (BODIPY 493/503 (4,4-difluoro-1,3,5,7-tetramethyl-4-bora-3a,4a-diaza-s-indacene-8-propionic acid, succinimidyl ester) from Invitrogen at 4-10 μM).
Adipogenesis Initiation Media: mesenchymal stem cell expansion media/0.5 mM IBMX/1 μM dexamethasone. Mesenchymal stem cell expansion media is commercially available from Millipore. The IBMX Solution was diluted 1:1000 and the Dexamethasone Solution was diluted 1:10,000 in expansion media containing antibiotics and antimycotics. The prepared media was stored at 4° C.
Adipogenesis Progression Media for positive control: mesenchymal stem cell expansion media/10 μg/mL insulin. The Insulin Solution was diluted 1:1000 in the expansion media and stored at 4° C.
Experimental Adipogenesis Progression Media: mesenchymal stem cell expansion media/1-100 μg/mL RHAMM antagonist peptides.
Adipogenesis Maintenance Media: mesenchymal stem cell expansion media containing antibiotics and antimycotics.
Negative Control Media: DMEM/10% normal calf serum.
as §1
Cells were incubated for 1-2 days until they reached confluency. Approximately 1.8 mL of media was removed from each well and replaced with 2 mL Adipogenesis Initiation Media. For negative control wells, expansion media only was used at this step and for subsequent media changes. For all media changes, media was replaced as gently as possible to avoid disturbing the monolayer.
Cells were incubated for 48 hours at 37° C., 5% CO2. 2 mL media was removed from each well, and replaced with 2 mL either positive control or experimental Adipogenesis Progression Media per well. Cells were again incubated for 48 hours at 37° C., 5% CO2. 2 mL of media was removed from each well and replaced with 2 mL Adipogenesis Maintenance Media per well. In addition, media was added to the empty wells reserved for blank well staining Cells were incubated for at least 48 hours at 37° C., 5% CO2. Media was replaced every 48-72 hours. Accumulation of intracellular lipid droplets continued for at least 5 days.
For quantification of Oil Red 0 staining, media was removed and cells were washed twice with PBS, using care to gently add the PBS. 0.5 mL Oil Red 0 solution was added per well of 24-well plate, including to the wells lacking cells, but containing media. Cells were incubated for 15 minutes at room temperature. The staining solution was then removed and wells were washed three times with 1 mL of phosphate buffered saline (PBS). In some experiments, following removal of the last wash, stained plates were scanned or photographed.
Adipogenesis was quantified using a spectrophotometer or fluorometer. 0.25 mL Dye Extraction Solution (isopropyl alcohol) was added per well, and the plate was set on an orbital shaker or platform rocker for 15-30 minutes. Extracted dye was transferred into a cuvette and absorbance was read in a spectrophotometer at visible range for oil red 0 or transferred to a 96-well plate and quantified in a plate reader.
For quantification of BODIPY dye uptake, media was removed and cells were washed twice with PBS, using care to gently add the PBS. Cells were then fixed in 3% paraformaldehyde, washed in PBS then incubated for 1 hour in the dark with the BODIPY solution, prepared in PBS. […]

Assay [3] relates to Pre-adipocyte stem cells, bone marrow mesenchymal stem cells and fibroblasts. Put plainly: Assay 2 to measure adipogenesis (dexamethasone/insulin/indomethacin induction, Oil Red O or BODIPY staining). Conditions: for Fold adipogenic induction vs. negative control / Specific activity (activity/1000 daltons): Assay 2; for adipogenic effect compared to KSEVSK 6-mer: assay 2 (FIG. 12). Format: cell-based. The procedure:
The dexamethasone, insulin, and Oil Red 0 solutions were the same as described above for assay 1. Indomethacin Solution contained 10 mM indomethacin in methanol. The BODIPY 493/503 dye was used at a concentration of 4 μM.
Adipogenesis Maintenance Media was prepared as described above.
Adipogenesis Induction Media: To prepare 501 mL of Adipogenesis Induction Media, 50 μL of the 10 mM stock solution of dexamethasone, 500 μL of the 10 mg/ml stock solution of insulin, 5 ml of a 10 mM stock solution of indomethacin, and 5 mL of a 100× stock solution of penicillin and streptomycin were added to 490 mL of mesenchymal stem cell expansion media.
as §2
Cells were incubated overnight and had reached confluency at this point. Approximately 1.8 ml of media was removed from each well and replaced with 2 ml Adipogenesis Induction Media. For negative control wells, expansion medium only was used at this step and for subsequent media changes. For all media changes, media was replaced as gently as possible to avoid disturbing the monolayer.
Cells were incubated for 3 days at 37° C., 5% CO2, media was replaced with fresh Adipogenesis Induction Media, and cells were incubated for an additional three days, at which point adipogenesis could be observed in about 5-10% of cells. Media was removed and replaced with 2 ml of maintenance medium containing either RHAMM antagonist peptides (experimental group) or insulin (concentration as in the induction medium used as positive control). Cells were incubated for 3 days at 37° C., 5% CO2.
Media was removed and BODIPY or Oil Red O staining was performed as described above for assay 1.

In assay [4] the test system is Pre-adipocytes (rat mesenchymal stem cells). Description: Adipogenic potential in 2D rat pre-adipocyte culture. Conditions: ranked on a scale of 0-5 with 5 the highest possible score; two-dimensional tissue culture. Format: cell-based. The procedure: (§3) Examples of the adipogenic effects of RHAMM antagonists (peptide B (SEQ ID NO: 2), peptide P15-1 (SEQ ID NO. 1), and the antibody to peptide B) are summarized in Table 1. Peptide P15-1, peptide B, and a RHAMM antibody were assayed for their effects on pre-adipocyte stem cells in culture and when injected into the dermis of aged rats. Reagents were ranked on a scale of 0-5 with 5 representing the highest possible score and a completely filled in Harvey ball. “2D” refers to two-dimensional tissue culture.

The next assay relates to Rat skin. Put plainly: Rat dermal skin model of adipogenesis (injection into the dermis). Conditions: for adipogenic potential, In vivo Rat skin: ranked on a scale of 0-5 with 5 the highest possible score, injected into the dermis of aged rats. Format: in vivo. The protocol: as §3
In FIGS. 5A and 5B, data are shown as a ratio of the area (“surface area”) of fat pads expressed as a ratio of experimental/control values.
The 6-mer (KSEVSK; SEQ ID NO: 3) was tested for adipogenic effect in rat skin in vivo. The results of this testing are shown in the photographs in FIG. 10.

The next assay has as its system human Pre-adipocytes. Put plainly: Adipogenic potential in 2D human pre-adipocyte culture. It is filed as cell-based. Conditions: ranked on a scale of 0-5 with 5 the highest possible score; two-dimensional tissue culture. The protocol:
as §3

Another assay relates to nude guinea pigs. Description: Nude guinea pig model, injection in upper back and ear fat pad, H and E staining. Format: in vivo. Conditions: upper back and ear fat pad after injection; control collagen gel vehicle only. The protocol: Peptide B (SEQ ID NO: 2) was also tested for its effect in nude guinea pigs since their skin structure resembles human facial skin. In particular, the skin of this animal model is more similar to human skin than is rat skin, in that it is hairless and the keratinocyte layer is thicker than in the rat model. […] Thus, peptide B was effective in promoting adipogenesis in this nude guinea pig model.

In the next assay the test system is mesenchymal stem cell. Put plainly: Adipogenesis using a commercially available mesenchymal stem cell kit. It is filed as cell-based.

Turning to STMMSRSHK, in assay [1], the “adipogenic activity (in words)” value was “has adipogenic activity”.
Take KLKDENS: the “adipogenic activity (in words)” value in assay [1] is “Only the SQLKSEVSK (SEQ ID NO: 44) fragment was found to be adipogenic”.
On to LKSEVSK [7mer], for which the “Fold adipogenic induction vs. negative control” value in assay [2] turned out to be 2; in assay [3], 3.0. The “Specific activity (activity/1000 daltons)” value (“Specific activity” for short) in assay [2] came out at 2.3 activity/1000 daltons; in assay [3], 3.4 activity/1000 daltons. Moreover, the “adipogenic activity (in words)” value in assay [1] is “also found to be adipogenic”.
Turning to SEVSK, in assay [1], the “activity compared to KSEVSK hexamer” value is given as “much less active” and the “adipogenic activity (in words)” value is given as “low level of adipogenic activity”.
With STMMSRSHKTRSHHV [peptide P15-1], in assay [4], the “adipogenic potential, 2D rat Pre-adipocytes (rat mesenchymal stem cells)” value is recorded as 2. For the same molecule, the “adipogenic potential, In vivo Rat skin” value in the assay on Rat skin came out at 2. Also, in the assay with human Pre-adipocytes, the “adipogenic potential, 2D human Pre-adipocytes” value is 2.
As to KSEVSA, the “adipogenic effect compared to KSEVSK 6-mer” value in assay [2] and in assay [3] was “reduced adipogenic effects” each time.
With KSEVSK [6mer], the “adipogenic effect in rat skin in vivo (fat pads)” value in the assay on Rat skin (FIG. 10) was “able to induce large fat pads, possibly larger than peptide B”. In addition, in assay [2], the “Fold adipogenic induction vs. negative control” value is 2.8 and the “Specific activity” value is listed as 3.7 activity/1000 daltons. Moreover, in assay [3], the “Fold adipogenic induction vs. negative control” value was 4.2 and the “Specific activity” value was 5.6 activity/1000 daltons. The “adipogenic activity (in words)” value in assay [1] is listed as “also found to be adipogenic”.
As for ASEVSK, the “adipogenic effect compared to KSEVSK 6-mer” value in assay [2] and in assay [3] was “reduced adipogenic effects” throughout.
With SQLKSEVSK [9mer], the “Fold adipogenic induction vs. negative control” value in assay [2] was determined as 2.4; in assay [3] it was 3.0. Also, the results for the “Specific activity” value in assay [2] and in assay [3] were 2.1 activity/1000 daltons and 2.6 activity/1000 daltons, respectively. Moreover, in assay [1], the “adipogenic activity (in words)” value is listed as “found to be adipogenic”.
Take KSEVS: in assay [1], the “activity compared to KSEVSK hexamer” value is reported as “much less active” and the “adipogenic activity (in words)” value was “low level of adipogenic activity”.
On to KLKDENSQLKSEVSK [peptide B], for which the “adipogenic potential, 2D rat Pre-adipocytes (rat mesenchymal stem cells)” value in assay [4] is recorded as 5. In addition, the “fat accumulation in rat dermal skin model” value in the assay on Rat skin (25-50 μg/injection site) is given as “induced significant fat accumulation”. Besides, the “fat pad surface area, experimental/control: animal group with best effect” value in the assay with Rat skin (FIGS. 5A and 5B) is on record as “most effective in old females”. Moreover, the “adipogenic potential, In vivo Rat skin” value in the assay with Rat skin was found to be 5. The “adipogenic potential, 2D human Pre-adipocytes” value with human Pre-adipocytes is on record as 5. In assay [3], the “Fold adipogenic induction vs. negative control” value was found to be 3.1 and the “Specific activity” value came out at 1.7 activity/1000 daltons. For the same molecule, in assay [1] (bone marrow mesenchymal stem cells, depending upon the screening assay used (FIGS. 3B, 3C, 4)), the “amount at which maximum adipogenic effect was obtained” value was 1 to 5 µg. In the assay with nude guinea pigs, the subcutaneous fat deposition entry is “increase in subcutaneous fat deposition”.

B1: RHAMM carboxy-terminal sequence: RHAMM carboxy-terminal sequence aa681-794 produced as a recombinant protein (protein)
chain: LDAFEAEKQALLNEHGATQEQLNKIRDSYAQLLGHQNLKQKIKHVVKLKDENSQLKSEVSKLRSQLVKRKQNELRLQGELDKALGIRHFDPSKAFCHASKENFTPLKEGNPNCC
Turning to B1, the promotion of adipogenesis entry in the assay on mesenchymal stem cell is reported as “promoted adipogenesis”.

These data come from patent US10766927B2, “Peptides that stimulate subcutaneous adipogenesis” (THE REGENTS OF THE UNIVERSITY OF CALIFORNIA, priority 2012, dated 2020).
